For 7 compounds, GI50 and TGI results are on record in PubChem BioAssay (NCI).

Common to all, as to assay: inhibition of tumour cell growth, NCI panel, 48 h
For assay [1], the system named is SNB-19 CNS.
Assay [2] concerns SNB-75 CNS.
Assay [3] has as its system BT-549 breast.
For assay [4], the system named is OVCAR-3 ovarian.
Assay [5] deals with SR leukemia.
Assay [6] deals with PC-3 prostate.
The subject of assay [7] is OVCAR-5 ovarian.
Assay [8] has as its system A549 NSCLC.
Assay [9] has as its system MCF7 breast.
Assay [10] deals with HOP-92 NSCLC.

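The compound was tested at five concentrations on cells cultured in 96-well plates, with a 48-hour exposure period. The concentration for 50% growth inhibition is given as GI50. At the TGI there is no net growth.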 Some results are limits rather than exact numbers.

As to `CCCCNC(=O)Oc1ccc(/C(=C(/CC)Cc2ccccc2)c2ccc(OCCN3CCCCCC3)cc2)cc1`, the GI50 was 39.8 µM in assay [1]; greater than 100 µM in assay [2]; 46.5 µM in assay [3]; 19.9 µM in assay [4]; 14.6 µM in [5]; 33.2 µM in assay [6]. Moreover, the GI50 is 96.3 µM in assay [7], 32.4 µM in assay [8], 6.32 µM in [9] and 19 µM in assay [10]. The TGI was greater than 100 µM in assay [1]; greater than 100 µM in assay [2]; greater than 100 µM in [3]; 42.6 µM in assay [4]; 41.1 µM in assay [5]; greater than 100 µM in [6]. For the same compound, the TGI in assay [7] is greater than 100 µM; in [8], greater than 100 µM; in assay [9] it was 59.6 µM; in assay [10], 47.2 µM.
As for `CC(=O)c1cccc(-c2cccc(-c3ccn(CCN4CCOCC4)n3)c2)c1`, the GI50 in [2], in assay [3], in assay [4], in [5], in assay [6] and in assay [7] was greater than 20 µM throughout. For the same compound, the figures for the GI50 in assay [8], in [9] and in assay [10] were greater than 20 µM, greater than 20 µM and 16.2 µM, respectively. Besides, the TGI in [2], in assay [3], in assay [4], in assay [5], in [6] and in assay [7] was greater than 20 µM each time. Also, the TGI in assay [8], in assay [9] and in [10] was greater than 20 µM in each case.
In the case of `O=C(Nc1ccc(Br)cc1)Nc1nn(C(=O)Nc2ccc(Br)cc2)c2ccccc12`, the GI50 in assay [1] is 23.6 µM; in assay [2], 8.26 µM; in assay [3], 34.5 µM; in assay [4], 33.9 µM; in assay [5], 30.5 µM; in [6], greater than 51.6 µM. Also, the GI50 in [7] is greater than 100 µM; in [8], 51.5 µM; in assay [9], 29.1 µM; in [10] it was 24.4 µM. The TGI is 81 µM in assay [1]; 28.7 µM in assay [2]; greater than 93.7 µM in [3]; greater than 77.6 µM in assay [4]; greater than 100 µM in assay [5]; greater than 100 µM in [6]. Also, the TGI in assay [7] is greater than 100 µM; in [8], greater than 100 µM; in assay [9], greater than 100 µM; in [10] it was greater than 65.5 µM.
In the case of `CNCCNc1nc2ccccc2c2c(=O)c3cc(OC)ccc3sc12`, the GI50 in [2] is 1.28 µM; in assay [3] it was 1.59 µM; in [4], 1.84 µM; in assay [5], 1.74 µM; in [6], 1.47 µM; in assay [7], 1.8 µM. In addition, the GI50 in [8] was 1.71 µM; in assay [9], 1.54 µM; in [10], 1.29 µM. Besides, the TGI in [2] is 2.58 µM; in assay [3], 3.11 µM; in assay [4], 3.43 µM; in assay [5], 4.23 µM; in [6] it was 2.94 µM; in assay [7], 3.27 µM. The TGI in [8] amounted to 3.41 µM; in [9], 3.1 µM; in [10], 3.32 µM.
For the compound `COC(=O)C(=O)C(C(=O)C(N)=O)c1nc2ccc(C(=O)c3ccccc3)cc2[nH]c1=O` (stereo unspecified), the TGI in assay [2], in assay [3], in assay [4], in assay [5], in assay [6] and in assay [7] was greater than 100 µM throughout. The TGI in assay [8], in assay [9] and in [10] was greater than 100 µM each time.
`CNCCNc1nc2ccccc2c2c(=O)c3cc(F)ccc3sc12`: the GI50 was 1.58 µM in [2]; 3.59 µM in assay [3]; 1.7 µM in [4]; 1.83 µM in assay [5]; 1.52 µM in [6]; 1.65 µM in [7]. In addition, the GI50 was 1.65 µM in assay [8], 1.67 µM in [9] and 1.73 µM in [10]. Also, the TGI in [2] was found to be 5.6 µM; in [3], 14.9 µM; in assay [4], 3.25 µM; in assay [5] it was 4.31 µM; in assay [6], 3.3 µM; in assay [7], 3.21 µM. The TGI in [8] was 3.29 µM; in assay [9] it was 3.31 µM; in [10] it was 7.42 µM.
With `COC(=O)c1cc(-c2ccc(OC)cc2)[nH]c1N/N=C/c1c(Cl)cccc1Cl`, the GI50 is 0.358 µM in assay [1]; 0.161 µM in assay [2]; 0.177 µM in [3]; 0.0909 µM in assay [5]; 0.261 µM in assay [6]; 1.49 µM in [7]. Moreover, the GI50 in assay [8] was 0.361 µM; in [9], 0.107 µM; in assay [10], 0.206 µM. The TGI in assay [1] came to 11.5 µM; in assay [2], 0.725 µM; in assay [3], 2.02 µM; in [5], 1.18 µM; in assay [6], 3.78 µM; in [7], 8.37 µM. In addition, the TGI is 4.48 µM in assay [8], 0.887 µM in [9] and 2.5 µM in [10].
